# Where no end group is shown, it is not given here.
# Assays:
# S. aureus ATCC29213 = format: cell-based, Staphylococcus aureus
# Protocol: (§1) The antibacterial activity was evaluated using a standard MIC and MBC assay according to the National Committee for Clinical Laboratory Standards (NCCLS). MIC, MBC assay, and time-kill curves for the optimal peptide are provided in the Supplementary Materials.
# (§2) Antimicrobial Activity Assays. The antibacterial activity of the peptides was determined using a method designed from the National Committee for Clinical Laboratory Standards (NCCLS) in the United States. All the strains used in the experiment are preserved in the laboratory. Briefly, log phase bacterial cells were diluted in MHB to a final concentration of 0.5-1x10^5 CFU/mL. Subsequently, 50μL of different concentrations of polypeptides were incubated with 50 μL of bacterial solution in sterile 96-well plates. In the minimum inhibitory concentration (MIC) assay, the plate was incubated at 37°C for 24 h, and the minimum inhibitory concentration (MIC) was determined by the absorbance at 492 nm of the microplate reader, and the minimum inhibitory concentration (MIC) inhibited 95% of bacteria grow. Determination of minimum bactericidal concentration: the plate was incubated at 37°C for 4 hours, 50 μL of the mixture was taken out of each well, diluted with an appropriate amount of PBS, smeared on the agar plate, and cultured overnight. Colonies were counted and the initial CFU/well was retrospectively calculated the following day. The lowest concentration of peptide that kills 99.9% of bacterial cells is the minimum bactericidal concentration (µM), Each test was replicated at least 3 times.
# S. aureus Mu50 biofilm = assay: Anti-biofilm assay (crystal violet); format: cell-based, Staphylococcus aureus MRSA
# Protocol: (§3) The anti-biofilm activity of DiPGLa-H was evaluated using a crystal violet staining method. Briefly, 100 µL of bacterial suspension at 1 × 10^6 CFU/mL was incubated with DiPGLa-H (0–64 µM) for 48 h. The biofilm formed was stained with 1% crystal violet, and the absorbance was measured at 595 nm. The biofilm formation and mature biofilm removal assays were conducted. For biofilm formation, a bacterial suspension was incubated with DiPGLa-H, and biofilm content was quantified. To assess mature biofilm removal, pre-formed biofilms were treated with DiPGLa-H for 24 h, followed by quantification. Detailed Protocol in Supplementary Materials.
# (§4) To test the ability of DiPGLa-H to […] on the test bacteria, a single colony was inoculated in MHB medium and incubated overnight at 37 °C and 180 r/min, and 1% of the bacterial suspension was taken and continued to be amplified and incubated for 2 h. […] The biofilm content was analyzed by measuring the absorbance value at 595 nm, and anhydrous ethanol was used as a blank control. […]
# S. aureus Mu50 = assay: ROS generation (DCFH-DA); format: cell-based, Staphylococcus aureus MRSA; conditions: 8 µM DiPGLa-H, 1 h 37°C, DCFH-DA 10 µM
# Protocol: 2′,7′-Dichlorofluorescin diacetate (DCFH-DA) was used to determine the intracellular production of ROS as previously described. S. aureus Mu50 and E. coli K88 cells were diluted until OD600 = 0.4 and incubated in different concentrations of peptide at 37°C for 1 h. Next, the mixed solution was incubated with 10 µM DCFH-DA at 37°C for 1 h. The fluorescence (excitation wavelength = 488 nm, emission wavelength = 525 nm) was monitored with an Infinite 200 pro fluorescence spectrophotometer (Tecan, China). Each test was measured in triplicate and tested twice.
# S. aureus = conditions: one range printed for E. coli and S. aureus; cited from earlier work
# Protocol: (§5) PGLa, an amphibian 21-residue cationic AMP, with a net charge of +4, was found in the skin of the toad Xenopus laevis ([6]). The minimum inhibitory concentration (MIC) of PGLa against Escherichia coli 25922 and S. aureus 25923 were 10–50 μg/mL and 50–100 μg/mL, respectively ([6]). […] The rep ...
# E. coli = conditions: one range printed for E. coli and S. aureus; cited from earlier work
# Protocol: as §5
# E. coli K88 = assay: Time-kill (bactericidal) curve; format: cell-based, Escherichia coli; conditions: four times MIC, TSB, 37°C
# Protocol: as §1
# The bactericidal curve of the optimal peptide was further determined. […] Each test was replicated at least 3 times.
# [1] = test system: P. aeruginosa ATCC27853 biofilm; assay: Anti-biofilm assay (crystal violet); format: cell-based, Pseudomonas aeruginosa
# Protocol: as §3, §4
# Gram-negative bacteria = assay: Geometric mean MIC and therapeutic index, Gram-negative; format: cell-based; conditions: geometric mean of the peptide MICs against Gram-negative strains
# Protocol: as §1, §2
# [2] = 1×10^6 CFU/mL, DiPGLa-H 0-64 µM, 48 h, crystal violet, 595 nm
substance,measurement,setting,value
KIAKVALKALKIAKVALKAL-NH2 (C-terminus assumed) [DiPGLa-H],MBC S. aureus ATCC29213,"S. aureus ATCC29213; ATCC29213, 4 h",4 µM
same,MIC S. aureus ATCC29213,"S. aureus ATCC29213; ATCC29213, 24 h",4 µM
same,inhibition of biofilm formation,S. aureus Mu50 biofilm; [2],inhibition at higher concentrations
same,concentration effectively eradicating biofilms,S. aureus Mu50 biofilm; pre-formed biofilm treated with DiPGLa-H 0-64 µM for 24 h,above 16 µM
same,fold higher TIall vs PGLa-B1,,64 fold
same,elevation of ROS production vs untreated,S. aureus Mu50,4.6 fold
same,MIC S. aureus,S. aureus,0.75 to 1.5 µM
same,MIC E. coli,E. coli,0.75 to 1.5 µM
same,time to complete eradication of E. coli K88,E. coli K88,≤ 30 min
same,inhibition of biofilm formation,[1]; [2],inhibition at higher concentrations
same,biofilm elimination capacity,"[1]; pre-formed biofilm treated with DiPGLa-H for 24 h, similar concentrations (above 16 µM)",less pronounced
same,GMMIC Gram-negative,Gram-negative bacteria,2.82 µM

# Reference: publication PMC11921344, “Antimicrobial peptide DiPGLa-H exhibits the most outstanding anti-infective activity among the PGLa variants based on a systematic comparison” (Applied and Environmental Microbiology, 2025)
